The target of data set [1] is Histone deacetylase 3/Nuclear receptor corepressor 2 (HDAC3/NCoR2) (Homo sapiens, UniProt O15379). In words: Inhibition of C-terminal His-tagged human HDAC3 (1 to 428 residues)/N-terminal GST tagged human NCOR2 (395 to 489) expressed in baculovirus infected sf9 insect cells pretreated with compound followed by Fluor de Lys deacetylase substrate addition by fluorescence method.

Data set [2] has as its target T1, Protein deacetylase HDAC6 (Homo sapiens, UniProt Q9UBN7).
T1 sequence (Q9UBN7 whole entry): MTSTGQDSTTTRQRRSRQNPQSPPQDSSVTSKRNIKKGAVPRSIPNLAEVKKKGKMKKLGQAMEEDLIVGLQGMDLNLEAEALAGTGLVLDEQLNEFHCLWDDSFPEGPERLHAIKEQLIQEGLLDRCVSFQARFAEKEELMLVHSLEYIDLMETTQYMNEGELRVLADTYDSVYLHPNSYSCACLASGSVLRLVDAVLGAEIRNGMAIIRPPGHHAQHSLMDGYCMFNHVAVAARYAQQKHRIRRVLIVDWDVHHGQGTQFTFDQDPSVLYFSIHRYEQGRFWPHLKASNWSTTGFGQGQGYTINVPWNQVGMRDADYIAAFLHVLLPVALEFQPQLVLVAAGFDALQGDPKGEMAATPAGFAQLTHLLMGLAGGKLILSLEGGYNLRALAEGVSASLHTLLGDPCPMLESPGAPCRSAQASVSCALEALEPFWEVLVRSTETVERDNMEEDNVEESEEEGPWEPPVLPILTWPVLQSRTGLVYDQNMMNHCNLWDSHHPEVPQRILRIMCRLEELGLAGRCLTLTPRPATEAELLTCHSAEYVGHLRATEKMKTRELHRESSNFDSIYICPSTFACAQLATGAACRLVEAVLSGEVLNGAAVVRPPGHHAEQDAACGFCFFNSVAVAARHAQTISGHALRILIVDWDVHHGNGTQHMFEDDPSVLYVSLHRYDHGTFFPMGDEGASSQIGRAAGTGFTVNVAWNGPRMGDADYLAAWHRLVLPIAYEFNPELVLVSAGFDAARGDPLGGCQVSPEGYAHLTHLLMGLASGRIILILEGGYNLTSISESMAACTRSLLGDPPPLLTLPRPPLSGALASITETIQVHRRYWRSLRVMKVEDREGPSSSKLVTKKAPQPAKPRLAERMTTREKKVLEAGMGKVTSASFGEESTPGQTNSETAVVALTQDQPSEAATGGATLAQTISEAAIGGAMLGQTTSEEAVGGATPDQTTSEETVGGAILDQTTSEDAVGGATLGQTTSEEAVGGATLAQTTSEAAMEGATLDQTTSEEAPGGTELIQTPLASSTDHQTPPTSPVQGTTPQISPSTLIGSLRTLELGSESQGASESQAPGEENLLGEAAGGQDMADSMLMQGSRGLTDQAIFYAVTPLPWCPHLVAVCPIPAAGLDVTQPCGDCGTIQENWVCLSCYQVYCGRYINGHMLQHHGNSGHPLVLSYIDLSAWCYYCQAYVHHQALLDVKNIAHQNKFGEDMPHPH
In words: biochemical.
Description: Inhibition of recombinant full length human N-terminal GST-tagged HDAC6 expressed in baculovirus infected sf9 insect cells pretreated with compound followed by Fluor de Lys deacetylase substrate addition by fluorescence method

Another data set concerns Histone deacetylase. In words: Inhibition of HDAC in human 697 cells assessed as increase in H3 acetylation at 1000 nM incubated for 16 hrs by ELISA. The class given is cell-based. Particulars: human, 697, 16 h, 1 µM; call rule not given here. In general terms: In an ELISA, binding on a coated surface is turned into a signal by an enzyme label.
A short description of data set [3]: Selectivity ratio of IC50 for C-terminal GST-tagged human HDAC5 to IC50 for human N-terminal GST-tagged HDAC6 expressed in baculovirus infected sf9 insect cells.
Data set [4] is described as follows: Selectivity ratio of IC50 for N-terminal GST-tagged human HDAC7 (518 to end residues) expressed in baculovirus infected sf9 insect cells to IC50 for human N-terminal GST-tagged HDAC6 expressed in baculovirus infected sf9 insect cells.
The nature of data set [5]: Selectivity ratio of IC50 for C-terminal His-tagged human HDAC8 expressed in baculovirus infected sf9 insect cells to IC50 for human N-terminal GST-tagged HDAC6 expressed in baculovirus infected sf9 insect cells.
Data set [6] is described as follows: Selectivity ratio of IC50 for human HDAC4 expressed in baculovirus infected sf9 insect cells to IC50 for human N-terminal GST-tagged HDAC6 expressed in baculovirus infected sf9 insect cells.
Data set [7] can be described thus: Stability in human liver S9 fraction assessed as parent compound remaining at 5 uM after 90 mins in presence of NADPH by LC-MS/MS analysis. The class given is ADME, subcellular. To be noted: read-out: Stability.
A short description of data set [8]: Stability in rat plasma assessed as parent compound remaining at 100 uM after 4 hrs by LC-MS/MS analysis. The class given is ADME, cell-free. Particulars: read-out: Stability.
The nature of data set [9]: Stability in human plasma assessed as parent compound remaining at 100 uM after 4 hrs by LC-MS/MS analysis. The class given is ADME, cell-free. Particulars: read-out: Stability.
Data set [10] in a line: Stability in rat liver S9 fraction assessed as parent compound remaining at 5 uM after 90 mins in presence of NADPH by LC-MS/MS analysis. The class given is ADME, subcellular. Particulars: read-out: Stability.
The nature of data set [11]: Selectivity ratio of IC50 for C-terminal His-tagged human HDAC9 (604 to 1066 residues) expressed in baculovirus infected sf9 insect cells to IC50 for human N-terminal GST-tagged HDAC6 expressed in baculovirus infected sf9 insect cells.
A short description of data set [12]: Selectivity ratio of IC50 for N-terminal Flag-tagged human HDAC10 (2 to 631 residues) expressed in baculovirus infected sf9 insect cells to IC50 for human N-terminal GST-tagged HDAC6 expressed in baculovirus infected sf9 insect cells.
Data set [13] in a line: Selectivity ratio of IC50 for N-terminal His-tagged human HDAC11 expressed in baculovirus expression system to IC50 for human N-terminal GST-tagged HDAC6 expressed in baculovirus infected sf9 insect cells.
A further data set deals with 697. In words: Cytotoxicity against human 697 cells after 48 hrs by CellTiter 96 aqueous one solution assay. The class given is cell-based. Particulars: Homo sapiens, 697, 48 h.
The subject of the next data set is PBMC. In words: Cytotoxicity against human PBMC cells after 72 hrs by CellTiter 96 aqueous one solution assay. The class given is cell-based.

Bounds are passed on as bounds.

Histone deacetylase 3/Nuclear receptor corepressor 2 (HDAC3/NCoR2), sequence (O15379 whole entry, the tested form may be a part): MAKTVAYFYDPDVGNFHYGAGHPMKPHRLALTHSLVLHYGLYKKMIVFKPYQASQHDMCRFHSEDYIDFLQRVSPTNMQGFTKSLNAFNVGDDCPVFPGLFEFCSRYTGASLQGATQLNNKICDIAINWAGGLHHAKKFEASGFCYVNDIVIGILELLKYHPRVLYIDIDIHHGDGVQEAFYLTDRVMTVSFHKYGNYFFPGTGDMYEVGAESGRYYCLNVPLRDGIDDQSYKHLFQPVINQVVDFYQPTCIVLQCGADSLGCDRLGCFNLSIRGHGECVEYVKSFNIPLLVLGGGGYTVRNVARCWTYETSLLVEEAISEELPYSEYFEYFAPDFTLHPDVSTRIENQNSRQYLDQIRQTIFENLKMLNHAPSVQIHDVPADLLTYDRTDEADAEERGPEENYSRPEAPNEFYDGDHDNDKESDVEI
Histone deacetylase 3/Nuclear receptor corepressor 2 (HDAC3/NCoR2), sequence (Q9Y618 whole entry, further chain, the tested form may be a part): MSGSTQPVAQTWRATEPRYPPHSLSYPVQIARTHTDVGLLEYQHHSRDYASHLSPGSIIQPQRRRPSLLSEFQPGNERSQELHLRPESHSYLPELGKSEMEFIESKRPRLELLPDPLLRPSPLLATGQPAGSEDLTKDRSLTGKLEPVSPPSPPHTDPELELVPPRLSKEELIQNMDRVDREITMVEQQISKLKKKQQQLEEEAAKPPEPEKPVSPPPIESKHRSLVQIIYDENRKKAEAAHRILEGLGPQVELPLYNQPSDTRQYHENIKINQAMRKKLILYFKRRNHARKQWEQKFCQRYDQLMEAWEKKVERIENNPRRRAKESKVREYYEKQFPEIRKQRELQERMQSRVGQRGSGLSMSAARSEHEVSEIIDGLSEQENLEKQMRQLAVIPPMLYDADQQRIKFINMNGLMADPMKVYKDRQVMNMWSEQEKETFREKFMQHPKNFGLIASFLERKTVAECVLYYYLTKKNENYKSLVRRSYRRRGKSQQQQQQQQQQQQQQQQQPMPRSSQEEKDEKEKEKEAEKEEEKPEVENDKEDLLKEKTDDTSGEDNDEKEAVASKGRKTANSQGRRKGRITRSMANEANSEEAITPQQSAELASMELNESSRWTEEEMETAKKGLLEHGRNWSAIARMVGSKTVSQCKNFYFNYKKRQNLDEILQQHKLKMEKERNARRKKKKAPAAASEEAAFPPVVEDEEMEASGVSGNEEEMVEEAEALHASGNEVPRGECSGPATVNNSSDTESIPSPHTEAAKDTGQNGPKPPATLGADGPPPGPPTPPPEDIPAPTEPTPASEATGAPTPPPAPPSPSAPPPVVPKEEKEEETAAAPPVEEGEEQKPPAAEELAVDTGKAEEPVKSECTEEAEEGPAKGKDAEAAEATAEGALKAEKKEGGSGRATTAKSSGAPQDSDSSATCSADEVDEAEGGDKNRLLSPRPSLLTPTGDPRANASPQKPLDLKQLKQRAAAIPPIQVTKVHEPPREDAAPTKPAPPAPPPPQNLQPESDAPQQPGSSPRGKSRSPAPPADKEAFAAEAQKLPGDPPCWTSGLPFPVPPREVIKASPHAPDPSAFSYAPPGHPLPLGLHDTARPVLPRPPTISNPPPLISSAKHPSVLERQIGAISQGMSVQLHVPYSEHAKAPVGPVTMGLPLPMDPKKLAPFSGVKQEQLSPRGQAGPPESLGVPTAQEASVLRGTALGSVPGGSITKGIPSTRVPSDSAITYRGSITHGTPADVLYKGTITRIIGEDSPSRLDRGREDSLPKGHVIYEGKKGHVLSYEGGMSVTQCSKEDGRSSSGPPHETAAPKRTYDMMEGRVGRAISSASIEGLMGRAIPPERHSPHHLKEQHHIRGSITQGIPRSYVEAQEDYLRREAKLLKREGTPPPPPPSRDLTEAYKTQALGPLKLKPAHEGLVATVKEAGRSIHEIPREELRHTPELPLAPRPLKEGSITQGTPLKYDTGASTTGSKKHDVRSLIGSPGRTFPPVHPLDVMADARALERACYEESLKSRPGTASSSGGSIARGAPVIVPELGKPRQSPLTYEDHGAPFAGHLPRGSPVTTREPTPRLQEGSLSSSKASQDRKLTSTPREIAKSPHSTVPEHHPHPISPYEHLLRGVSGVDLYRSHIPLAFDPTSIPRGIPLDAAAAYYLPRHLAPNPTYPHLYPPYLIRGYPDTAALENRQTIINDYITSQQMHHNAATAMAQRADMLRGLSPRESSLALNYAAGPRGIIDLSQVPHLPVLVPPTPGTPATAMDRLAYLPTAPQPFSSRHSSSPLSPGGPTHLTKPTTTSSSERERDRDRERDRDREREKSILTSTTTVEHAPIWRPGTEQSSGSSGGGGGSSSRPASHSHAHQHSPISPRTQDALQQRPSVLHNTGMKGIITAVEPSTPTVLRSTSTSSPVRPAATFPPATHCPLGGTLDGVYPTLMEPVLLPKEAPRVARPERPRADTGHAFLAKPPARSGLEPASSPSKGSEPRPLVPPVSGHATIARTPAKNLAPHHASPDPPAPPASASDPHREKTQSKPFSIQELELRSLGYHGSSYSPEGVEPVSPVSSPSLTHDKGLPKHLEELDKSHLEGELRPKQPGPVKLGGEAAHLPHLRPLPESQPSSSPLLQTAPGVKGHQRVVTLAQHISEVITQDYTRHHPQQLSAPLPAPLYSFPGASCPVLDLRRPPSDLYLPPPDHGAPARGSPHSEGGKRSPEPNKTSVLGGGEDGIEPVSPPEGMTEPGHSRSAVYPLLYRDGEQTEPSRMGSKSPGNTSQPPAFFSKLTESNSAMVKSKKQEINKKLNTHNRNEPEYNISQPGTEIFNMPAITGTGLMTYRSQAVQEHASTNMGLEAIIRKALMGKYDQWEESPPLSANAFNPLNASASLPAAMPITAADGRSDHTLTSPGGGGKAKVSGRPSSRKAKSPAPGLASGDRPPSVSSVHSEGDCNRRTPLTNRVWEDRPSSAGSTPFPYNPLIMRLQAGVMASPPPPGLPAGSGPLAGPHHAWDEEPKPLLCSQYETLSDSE

What is called IC50 is the concentration at which inhibition is half-maximal. `CC(=O)Nc1ccc(C(=O)NO)cc1`: the IC50 in [1] came out at 1670 nM; in data set [2], 270 nM.

As for `O=C(NO)c1ccc(Cc2nnc[nH]2)cc1`, the half-inhibitory concentration (IC50) was 2900 nM in data set [1] and 198 nM in data set [2].

Turning to `Cc1nnc(-c2ccc(C(=O)NO)cc2)[nH]1`, the half-maximal inhibitory concentration (IC50) in data set [1] is 3560 nM; in data set [2], 353 nM.

`O=C(NO)c1cc(F)c(Cn2nnc(-c3ccco3)n2)c(F)c1`: in the data set on Histone deacetylase, the “inhibition (INH)” value is on record as “Active”. The “Ratio IC50” value in data set [3] was determined as 194; in data set [4] it was 330; in [5], 210; in [6], 219; in data set [11], 192; in [12] it was 876. In data set [13], the “Ratio IC50” value is on record as 259. The remaining at […], 5 µM worked out at 94% in data set [7] and 68% in data set [10]. Also, the remaining at 4 h, 100 µM in [8] and in [9] was 100% in each case. The half-inhibitory concentration (IC50) is above 1000 nM in the data set on 697, above 1000 nM with PBMC and 3 nM in [2].

Turning to `Cn1c(Sc2c(F)cc(C(=O)NO)cc2F)nnc1-c1ncccc1F`, the “inhibition (INH)” value with Histone deacetylase is recorded as “Active”. Besides, the “Ratio IC50” value in [3] is 54; in data set [4] it was 38; in data set [5], 64; in data set [6] it was 53; in data set [11], 24; in data set [12], 432. Moreover, the “Ratio IC50” value in data set [13] was 250. The remaining at […], 5 µM in data set [7] stood at 80%; in [10] it was 70%. The remaining at 4 h, 100 µM in [8] is 100%; in data set [9], 97%. Also, the IC50 with 697 and in the data set on PBMC was above 1000 nM each time.

As to `Cn1c(Sc2c(F)cc(C(=O)NO)cc2F)nnc1-c1cccnn1`, the “inhibition (INH)” value with Histone deacetylase is given as “Active”. The “Ratio IC50” value in [3] is 34; in [4] it was 15; in data set [5], 34; in data set [6], 33; in data set [11] it was 16; in [12] it was 372. Besides, the “Ratio IC50” value in data set [13] is listed as 278. The remaining at […], 5 µM in data set [7] turned out to be 79%; in data set [10], 58%. Further, the remaining at 4 h, 100 µM in [8] stood at 98%; in data set [9] it was 100%. Further, the half-maximal inhibitory concentration (IC50) is above 1000 nM in the data set with 697, above 1000 nM in the data set on PBMC and 13 nM in data set [2].

For `NCc1ccc(C(=O)NO)cc1`, the IC50 in data set [1] came out at 5000 nM.

`Nc1ccc(C(=O)NO)cc1`: the IC50 is 18400 nM in [1] and 1390 nM in data set [2].

With `Cc1cc(-c2nnc(Sc3c(F)cc(C(=O)NO)cc3F)n2C)nn1C`, the “inhibition (INH)” value in the data set on Histone deacetylase is given as “Active”. For the same compound, the “Ratio IC50” value stood at 42 in data set [3]; 48 in data set [4]; 19 in data set [5]; 48 in data set [6]; 24 in data set [11]; 497 in data set [12]. In addition, the “Ratio IC50” value in data set [13] is given as 294. The remaining at […], 5 µM is 76% in [7] and 30% in data set [10]. In addition, the figures for the remaining at 4 h, 100 µM in data set [8] and in data set [9] were 80% and 92%, respectively. Besides, the values for the half-maximal inhibitory concentration (IC50) (in the data set with 697; in the data set with PBMC; in data set [2]) were above 1000 nM, above 1000 nM and 6 nM, respectively.

As for `Cn1c(Sc2c(F)cc(C(=O)NO)cc2F)nnc1-c1cccc(CN2CCCCCC2)c1`, the “inhibition (INH)” value with Histone deacetylase was “Active”. Moreover, the “Ratio IC50” value worked out at 82 in data set [3]; 79 in data set [4]; 41 in data set [5]; 86 in data set [6]; 23 in data set [11]; 310 in data set [12]. The “Ratio IC50” value in data set [13] was found to be 169. Moreover, the values for the remaining at […], 5 µM in data set [7] and in data set [10] were 78% and 55%, respectively. Further, the remaining at 4 h, 100 µM worked out at 85% in data set [8] and 91% in data set [9]. The IC50 in the data set with 697 is above 1000 nM; with PBMC, above 1000 nM; in [2], 10 nM.

For the compound `Nc1ccc(-c2nnn(Cc3c(F)cc(C(=O)NO)cc3F)n2)cc1`, in the data set on Histone deacetylase, the “inhibition (INH)” value is on record as “Active”. Besides, the “Ratio IC50” value in [3] worked out at 144; in data set [4], 325; in data set [5], 230; in data set [6] it was 162; in [11], 118; in data set [12] it was 138. Besides, in data set [13], the “Ratio IC50” value worked out at 86. In addition, the results for the remaining at […], 5 µM in data set [7] and in data set [10] were 74% and 48%, respectively. Moreover, the remaining at 4 h, 100 µM in data set [8] amounted to 77%; in data set [9], 88%. Moreover, the half-maximal inhibitory concentration (IC50) in the data set with 697 was above 1000 nM; with PBMC it was above 1000 nM; in data set [2] it was 3 nM.

For `O=C(NO)c1ccccc1` [BENZOHYDROXAMATE], the half-maximal inhibitory concentration (IC50) in [1] worked out at 71600 nM; in data set [2], 2370 nM.

Source of the values: ChEMBL document CHEMBL4414648, “Novel Benzohydroxamate-Based Potent and Selective Histone Deacetylase 6 (HDAC6) Inhibitors Bearing a Pentaheterocyclic Scaffold: Design, Synthesis, and Biological Evaluation” (J Med Chem, 2019).
